According to the Kinase Knowledgebase extract (Sharma et al. 2016):

What was measured:
PIK3CB (Human) = PIK3CB (Human) (UniProt P42338); assay: Enzyme Assay
PIK3CD (Human) [1] = biological target: PIK3CD (Human) (UniProt O00329); assay: Enzyme Assay
PIK3CG (human) = PIK3CG (human) (UniProt P48736); assay: Enzyme Assay
PIK3CD (Human) [2] = biological target: PIK3CD (Human) (UniProt O00329); assay: Cell-Based Assay; details: raji
PIK3CA (human) = PIK3CA (human) (UniProt P42336); assay: Enzyme Assay
PIK3CA (human), sequence (P42336 whole entry, looked up): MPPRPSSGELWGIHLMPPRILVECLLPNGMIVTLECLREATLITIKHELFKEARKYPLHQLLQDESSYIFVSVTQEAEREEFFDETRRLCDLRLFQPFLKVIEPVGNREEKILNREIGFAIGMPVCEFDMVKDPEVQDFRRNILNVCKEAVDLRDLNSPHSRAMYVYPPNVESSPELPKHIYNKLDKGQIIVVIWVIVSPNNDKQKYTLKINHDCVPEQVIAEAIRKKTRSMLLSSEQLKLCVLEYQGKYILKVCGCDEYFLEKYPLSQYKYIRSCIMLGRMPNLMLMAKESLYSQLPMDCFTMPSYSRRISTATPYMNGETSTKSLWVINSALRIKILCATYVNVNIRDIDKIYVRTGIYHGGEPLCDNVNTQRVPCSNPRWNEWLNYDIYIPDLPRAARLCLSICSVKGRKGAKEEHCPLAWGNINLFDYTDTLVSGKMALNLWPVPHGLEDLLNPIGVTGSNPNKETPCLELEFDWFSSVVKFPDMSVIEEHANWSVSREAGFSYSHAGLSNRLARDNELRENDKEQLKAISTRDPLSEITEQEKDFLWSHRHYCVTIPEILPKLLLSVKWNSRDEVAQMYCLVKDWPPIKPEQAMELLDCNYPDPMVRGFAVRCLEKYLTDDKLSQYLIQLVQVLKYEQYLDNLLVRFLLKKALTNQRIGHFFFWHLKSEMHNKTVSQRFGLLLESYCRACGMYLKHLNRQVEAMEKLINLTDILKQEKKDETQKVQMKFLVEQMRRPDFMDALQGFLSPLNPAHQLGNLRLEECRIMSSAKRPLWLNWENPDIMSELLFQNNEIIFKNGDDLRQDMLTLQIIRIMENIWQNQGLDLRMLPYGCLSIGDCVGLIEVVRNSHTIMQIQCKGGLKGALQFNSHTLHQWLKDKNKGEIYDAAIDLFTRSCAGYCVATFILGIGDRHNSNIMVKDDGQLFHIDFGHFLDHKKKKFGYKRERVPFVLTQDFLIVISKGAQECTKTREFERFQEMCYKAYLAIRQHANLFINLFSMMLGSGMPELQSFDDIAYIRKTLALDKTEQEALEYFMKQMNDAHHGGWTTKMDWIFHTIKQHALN

PIK3CD (Human), sequence (O00329 whole entry, looked up): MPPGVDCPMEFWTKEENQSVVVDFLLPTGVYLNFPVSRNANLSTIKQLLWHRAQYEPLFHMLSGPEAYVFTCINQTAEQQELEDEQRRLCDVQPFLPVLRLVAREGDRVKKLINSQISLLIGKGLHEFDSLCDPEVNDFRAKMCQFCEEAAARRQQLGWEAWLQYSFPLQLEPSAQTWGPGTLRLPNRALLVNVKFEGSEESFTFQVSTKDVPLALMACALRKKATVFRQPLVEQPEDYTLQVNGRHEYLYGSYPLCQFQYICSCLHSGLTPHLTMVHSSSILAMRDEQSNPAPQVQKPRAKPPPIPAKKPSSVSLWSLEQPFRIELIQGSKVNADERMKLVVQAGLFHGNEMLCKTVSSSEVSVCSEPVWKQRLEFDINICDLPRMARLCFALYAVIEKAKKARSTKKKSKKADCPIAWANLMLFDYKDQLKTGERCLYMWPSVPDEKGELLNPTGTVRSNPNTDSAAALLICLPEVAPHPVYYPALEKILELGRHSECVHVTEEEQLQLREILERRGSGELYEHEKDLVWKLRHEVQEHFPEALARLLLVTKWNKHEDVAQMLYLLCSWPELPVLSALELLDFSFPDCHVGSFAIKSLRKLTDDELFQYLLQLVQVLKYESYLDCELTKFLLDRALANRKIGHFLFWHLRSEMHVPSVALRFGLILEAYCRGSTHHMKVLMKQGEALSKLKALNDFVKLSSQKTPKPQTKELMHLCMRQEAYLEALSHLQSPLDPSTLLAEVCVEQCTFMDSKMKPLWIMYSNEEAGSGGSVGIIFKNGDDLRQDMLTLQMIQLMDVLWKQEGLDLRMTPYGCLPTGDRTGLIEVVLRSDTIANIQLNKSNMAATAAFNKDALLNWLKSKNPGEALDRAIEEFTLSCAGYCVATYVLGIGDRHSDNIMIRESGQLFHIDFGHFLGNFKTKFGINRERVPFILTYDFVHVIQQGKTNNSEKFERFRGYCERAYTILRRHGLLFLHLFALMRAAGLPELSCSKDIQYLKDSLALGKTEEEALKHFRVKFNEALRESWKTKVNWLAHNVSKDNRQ
PIK3CB (Human), sequence (P42338 whole entry, looked up): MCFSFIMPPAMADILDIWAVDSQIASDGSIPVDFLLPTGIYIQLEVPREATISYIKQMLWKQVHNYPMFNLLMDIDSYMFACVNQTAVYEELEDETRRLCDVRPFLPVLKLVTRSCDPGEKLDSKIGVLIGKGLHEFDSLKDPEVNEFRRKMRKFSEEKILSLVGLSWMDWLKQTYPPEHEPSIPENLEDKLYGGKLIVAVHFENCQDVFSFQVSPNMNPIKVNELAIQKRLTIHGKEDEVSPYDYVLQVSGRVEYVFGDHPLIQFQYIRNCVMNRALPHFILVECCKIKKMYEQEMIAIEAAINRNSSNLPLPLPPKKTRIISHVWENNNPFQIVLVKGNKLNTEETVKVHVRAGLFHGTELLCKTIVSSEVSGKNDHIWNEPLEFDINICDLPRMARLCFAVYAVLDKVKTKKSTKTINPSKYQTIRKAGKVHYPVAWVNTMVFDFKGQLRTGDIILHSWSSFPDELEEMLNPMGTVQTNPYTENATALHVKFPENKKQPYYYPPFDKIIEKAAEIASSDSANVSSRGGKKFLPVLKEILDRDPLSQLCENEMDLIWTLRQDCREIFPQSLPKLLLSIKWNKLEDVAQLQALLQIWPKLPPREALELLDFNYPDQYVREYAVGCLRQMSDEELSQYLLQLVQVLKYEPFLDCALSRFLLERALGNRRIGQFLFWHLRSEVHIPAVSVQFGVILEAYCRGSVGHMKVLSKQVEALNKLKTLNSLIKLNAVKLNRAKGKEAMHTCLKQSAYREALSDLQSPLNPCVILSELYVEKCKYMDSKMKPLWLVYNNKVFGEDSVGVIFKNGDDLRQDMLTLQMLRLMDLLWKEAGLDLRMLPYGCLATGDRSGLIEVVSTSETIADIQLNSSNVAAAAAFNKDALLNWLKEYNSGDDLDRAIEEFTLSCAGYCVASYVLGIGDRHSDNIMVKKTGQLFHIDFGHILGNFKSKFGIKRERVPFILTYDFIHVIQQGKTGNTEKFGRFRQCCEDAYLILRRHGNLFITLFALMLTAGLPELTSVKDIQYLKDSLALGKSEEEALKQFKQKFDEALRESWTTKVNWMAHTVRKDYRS
PIK3CG (human), sequence (P48736 whole entry, looked up): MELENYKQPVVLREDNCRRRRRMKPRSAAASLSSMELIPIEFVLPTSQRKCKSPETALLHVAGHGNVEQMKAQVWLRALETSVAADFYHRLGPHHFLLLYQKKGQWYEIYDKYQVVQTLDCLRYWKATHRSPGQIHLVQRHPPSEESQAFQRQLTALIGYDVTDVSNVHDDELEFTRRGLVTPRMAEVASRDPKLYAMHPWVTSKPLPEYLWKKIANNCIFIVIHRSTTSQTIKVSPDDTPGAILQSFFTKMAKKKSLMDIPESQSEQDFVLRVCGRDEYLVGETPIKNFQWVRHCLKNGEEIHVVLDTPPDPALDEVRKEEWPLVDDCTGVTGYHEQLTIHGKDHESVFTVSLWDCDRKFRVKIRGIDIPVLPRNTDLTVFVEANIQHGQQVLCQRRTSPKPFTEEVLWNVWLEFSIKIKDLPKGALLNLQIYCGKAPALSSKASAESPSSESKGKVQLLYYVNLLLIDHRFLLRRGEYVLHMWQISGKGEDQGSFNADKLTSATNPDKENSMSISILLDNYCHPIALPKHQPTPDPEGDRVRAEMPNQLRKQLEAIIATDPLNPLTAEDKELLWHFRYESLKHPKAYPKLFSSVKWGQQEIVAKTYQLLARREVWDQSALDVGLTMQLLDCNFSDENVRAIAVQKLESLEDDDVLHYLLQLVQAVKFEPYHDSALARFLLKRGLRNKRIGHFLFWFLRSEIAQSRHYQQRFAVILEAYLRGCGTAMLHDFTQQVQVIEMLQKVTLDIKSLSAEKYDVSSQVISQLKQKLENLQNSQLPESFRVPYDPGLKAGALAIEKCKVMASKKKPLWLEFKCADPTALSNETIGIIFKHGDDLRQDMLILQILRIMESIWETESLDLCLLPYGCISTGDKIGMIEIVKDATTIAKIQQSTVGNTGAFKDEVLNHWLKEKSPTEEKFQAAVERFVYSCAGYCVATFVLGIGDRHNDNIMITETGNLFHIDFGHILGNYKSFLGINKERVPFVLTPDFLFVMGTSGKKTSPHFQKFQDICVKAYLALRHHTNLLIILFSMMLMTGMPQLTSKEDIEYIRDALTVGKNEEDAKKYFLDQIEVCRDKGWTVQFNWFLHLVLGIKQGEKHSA

| SMILES | IC50 (PIK3CB (Human)) | IC50 (PIK3CD (Human) [1]) | IC50 (PIK3CG (human)) | IC50 (PIK3CD (Human) [2]) | IC50 (PIK3CA (human)) |
| --- | --- | --- | --- | --- | --- |
| CC[C@H](NC(=O)c1c(N)nn2cccnc12)c1cc2cccc(Cl)c2c(=O)n1-c1ccccc1 | < 0.1 µM | < 0.1 µM | 0.1 to 1 µM | < 0.1 µM | – |
| C[C@H](NC(=O)c1cnn2cccnc12)c1cc2cccc(Cl)c2c(=O)n1-c1ccccc1 | – | – | – | 0.1 to 1 µM | ≥ 10 µM |
| COc1ccc(-c2cnc(N)c(C(=O)N[C@@H](C)c3cc4cccc(Cl)c4c(=O)n3-c3ccccc3)n2)cc1NS(C)(=O)=O | 0.1 to 1 µM | – | < 0.1 µM | < 0.1 µM | 0.1 to 1 µM |
| C[C@H](NC(=O)c1nccnc1N)c1cc2cccc(-c3cnn(C)c3)c2c(=O)n1-c1ccccc1 | ≥ 10 µM | – | 0.1 to 1 µM | < 0.1 µM | ≥ 10 µM |
| COc1cc(-c2cccc3cc([C@H](C)NC(=O)c4c(N)ncc5cccnc45)n(-c4ccccc4)c(=O)c23)ccn1 | ≥ 10 µM | 0.1 to 1 µM | < 0.1 µM | < 0.1 µM | – |
| C[C@H](NC(=O)c1c(N)nn2cccnc12)c1cc2cccc(Cl)c2c(=O)n1CCNCCO | < 0.1 µM | 0.1 to 1 µM | – | – | – |
| C[C@H](NC(=O)c1nc(-c2cccc(S(=O)(=O)NC3CC3)c2)cnc1N)c1cc2cccc(Cl)c2c(=O)n1-c1ccccc1 | – | – | – | < 0.1 µM | ≥ 10 µM |
| COc1ccc(-c2cnc(N)c(C(=O)N[C@@H](C)c3cc4cccc(Cl)c4c(=O)n3-c3ccccc3)n2)cc1F | ≥ 10 µM | – | – | – | ≥ 10 µM |
| C[C@H](NC(=O)c1c(N)nn2cccnc12)c1cc2sccc2c(=O)n1-c1ccccc1 | – | – | – | 0.1 to 1 µM | ≥ 10 µM |
| C[C@H](NC(=O)c1c(N)nn2cccnc12)c1cc2cccc(CO)c2c(=O)n1-c1ccccc1 | – | – | 0.1 to 1 µM | 0.1 to 1 µM | ≥ 10 µM |
| C[C@H](NC(=O)c1nc(-c2cccc(NS(=O)(=O)N(C)C)c2)cnc1N)c1cc2cccc(Cl)c2c(=O)n1-c1ccccc1 | 0.1 to 1 µM | 0.1 to 1 µM | < 0.1 µM | < 0.1 µM | – |
| C[C@H](NC(=O)c1c(N)ncc2cccnc12)c1cc2cccc(N3CCOCC3)c2c(=O)n1-c1ccccc1 | ≥ 10 µM | – | 0.1 to 1 µM | < 0.1 µM | ≥ 10 µM |
| COc1cccc2cc([C@H](C)NC(=O)c3c(N)nn4cccnc34)n(-c3ccccc3)c(=O)c12 | ≥ 10 µM | – | – | 0.1 to 1 µM | ≥ 10 µM |
| C[C@H](NC(=O)c1c(N)nn2cccnc12)c1cc2cccc(/C=N\O)c2c(=O)n1-c1ccccc1 | ≥ 10 µM | – | 0.1 to 1 µM | – | ≥ 10 µM |
| C[C@H](NC(=O)c1c(N)nn2cccnc12)c1cc2cccc(C3CC3)c2c(=O)n1-c1ccccc1 | ≥ 10 µM | – | – | 0.1 to 1 µM | ≥ 10 µM |
| C[C@H](NC(=O)c1c(N)nn2cccnc12)c1cc2cccc(Cl)c2c(=O)n1C | < 0.1 µM | 0.1 to 1 µM | 0.1 to 1 µM | < 0.1 µM | – |
| Cc1cnc(C(=O)N[C@@H](C)c2c(Br)c3cccc(Cl)c3c(=O)n2-c2ccccc2)c(N)n1 | ≥ 10 µM | – | – | – | ≥ 10 µM |
| CC(C)c1ccn2nc(N)c(C(=O)N[C@@H](C)c3cc4cccc(Cl)c4c(=O)n3-c3ccccc3)c2n1 | – | – | – | 0.1 to 1 µM | ≥ 10 µM |
| C=CC(=O)NCC#Cc1cccc2cc([C@H](C)NC(=O)c3c(N)nn4cccnc34)n(-c3ccccc3)c(=O)c12 | – | 0.1 to 1 µM | < 0.1 µM | < 0.1 µM | – |
| C[C@H](NC(=O)c1nc(-c2cccc(S(=O)(=O)N(C)C)c2)cnc1N)c1cc2cccc(Cl)c2c(=O)n1-c1ccccc1 | – | – | – | 0.1 to 1 µM | ≥ 10 µM |

| SMILES | IC50 (PIK3CB (Human)) | IC50 (PIK3CD (Human) [1]) | IC50 (PIK3CG (human)) | IC50 (PIK3CD (Human) [2]) | IC50 (PIK3CA (human)) |
| --- | --- | --- | --- | --- | --- |
| C[C@H](NC(=O)c1c(N)nn2cccnc12)c1cc2ccccc2c(=O)n1-c1ccccc1 | – | – | 0.1 to 1 µM | 0.1 to 1 µM | ≥ 10 µM |
| C[C@H](NC(=O)c1c(N)nn2cccnc12)c1cc2cccc(-c3cccnc3)c2c(=O)n1-c1ccccc1 | ≥ 10 µM | 0.1 to 1 µM | 0.1 to 1 µM | < 0.1 µM | – |
| C[C@H](NC(=O)c1c(N)nn2cccnc12)c1nc2cccc(Cl)c2c(=O)n1-c1ccccc1 | 0.1 to 1 µM | < 0.1 µM | < 0.1 µM | < 0.1 µM | – |
| C[C@H](NC(=O)c1nccnc1N)c1cc2cccc(Cl)c2c(=O)n1-c1ccccc1 | 0.1 to 1 µM | < 0.1 µM | 0.1 to 1 µM | < 0.1 µM | – |
| C[C@H](NC(=O)c1nc(-c2cscn2)cnc1N)c1cc2cccc(Cl)c2c(=O)n1-c1ccccc1 | – | ≥ 10 µM | 0.1 to 1 µM | 0.1 to 1 µM | – |
| Cc1ccn2ncc(C(=O)N[C@@H](C)c3cc4cccc(Cl)c4c(=O)n3-c3ccccc3)c2n1 | – | – | – | 0.1 to 1 µM | ≥ 10 µM |
| CC(NC(=O)c1c(N)nn2cccnc12)c1cc2cccc(Cl)c2nc1-c1ccccc1 (stereo not drawn) | – | – | – | < 0.1 µM | ≥ 10 µM |
| C[C@H](NC(=O)c1c(N)nn2cccnc12)c1cc2cccc(OC(F)(F)F)c2c(=O)n1-c1ccccc1 | ≥ 10 µM | – | – | – | ≥ 10 µM |
| C[C@H](NC(=O)c1c(N)nn2cccnc12)c1cc2cccc(C#N)c2c(=O)n1-c1ccccc1 | – | – | 0.1 to 1 µM | < 0.1 µM | ≥ 10 µM |
| C[C@H](NC(=O)c1c(N)nn2cccnc12)c1cc2cccc(C#CCNC(=O)C3CC(=O)CC(=O)C3)c2c(=O)n1-c1ccccc1 | – | 0.1 to 1 µM | < 0.1 µM | – | – |
| C[C@H](NC(=O)c1cnn2cccnc12)c1cc2cccc(C#CCNC(=O)[C@@H]3CCCO3)c2c(=O)n1-c1ccccc1 | 0.1 to 1 µM | – | < 0.1 µM | < 0.1 µM | 0.1 to 1 µM |
| C[C@H](NC(=O)c1c(N)nn2cccnc12)c1cc2ccsc2c(=O)n1-c1ccccc1 | – | – | – | 0.1 to 1 µM | ≥ 10 µM |
| C[C@H](NC(=O)c1nc(-c2cccc(S(=O)(=O)N3CCCC3)c2)cnc1N)c1cc2cccc(Cl)c2c(=O)n1-c1ccccc1 | – | – | – | – | ≥ 10 µM |
| CNCCn1c([C@H](C)NC(=O)c2c(N)nn3cccnc23)cc2cccc(Cl)c2c1=O | < 0.1 µM | < 0.1 µM | – | – | – |
| CC(C)Oc1cc(-c2cccc3cc([C@H](C)NC(=O)c4c(N)nn5cccnc45)n(-c4ccccc4)c(=O)c23)ccn1 | – | – | 0.1 to 1 µM | < 0.1 µM | ≥ 10 µM |
| C[C@H](NC(=O)c1nc(-c2cnn(C)c2)cnc1N)c1cc2cccc(Cl)c2c(=O)n1-c1ccccc1 | – | ≥ 10 µM | – | 0.1 to 1 µM | – |
| C[C@H](NC(=O)c1c(N)nn2cccnc12)c1cc2cccc(C#CCNC(=O)C3CCC(=O)C3)c2c(=O)n1-c1ccccc1 (stereo partly drawn) | – | – | < 0.1 µM | < 0.1 µM | 0.1 to 1 µM |
| COc1cccc2c(Br)c([C@H](C)NC(=O)c3c(N)nn4cccnc34)n(-c3ccccc3)c(=O)c12 | ≥ 10 µM | – | 0.1 to 1 µM | – | ≥ 10 µM |
| C[C@H](NC(=O)c1c(N)nn2cccnc12)c1cc2cccc(C(F)(F)F)c2c(=O)n1-c1ccccc1 | – | – | 0.1 to 1 µM | < 0.1 µM | ≥ 10 µM |
| C[C@H](NC(=O)c1c(N)nn2cccnc12)c1c(Br)c2cccc(Cl)c2c(=O)n1-c1ccccc1 | – | 0.1 to 1 µM | < 0.1 µM | < 0.1 µM | – |

| SMILES | IC50 (PIK3CB (Human)) | IC50 (PIK3CD (Human) [1]) | IC50 (PIK3CG (human)) | IC50 (PIK3CD (Human) [2]) | IC50 (PIK3CA (human)) |
| --- | --- | --- | --- | --- | --- |
| Nc1nccnc1C(=O)N1CCC[C@H]1c1cc2cccc(Cl)c2c(=O)n1-c1ccccc1 | ≥ 10 µM | – | ≥ 10 µM | – | ≥ 10 µM |
| CC(C)Oc1cc(-c2cccc3nc([C@H](C)NC(=O)c4c(N)nn5cccnc45)n(-c4ccccc4)c(=O)c23)ccn1 | – | – | – | < 0.1 µM | ≥ 10 µM |
| COc1ncc(-c2cccc3cc([C@H](C)NC(=O)c4c(N)nn5cccnc45)n(-c4ccccc4)c(=O)c23)s1 | ≥ 10 µM | – | 0.1 to 1 µM | – | ≥ 10 µM |
| CNc1cccc2cc([C@H](C)NC(=O)c3c(N)nn4cccnc34)n(-c3ccccc3)c(=O)c12 | ≥ 10 µM | ≥ 10 µM | – | 0.1 to 1 µM | – |
| C[C@H](NC(=O)c1c(N)nn2cccnc12)c1cc2cccc(-c3cnn(C)c3)c2c(=O)n1-c1ccccc1 | ≥ 10 µM | – | 0.1 to 1 µM | < 0.1 µM | ≥ 10 µM |
| Cc1cnc(N)c(C(=O)N[C@@H](C)c2cc3cccc(Cl)c3c(=O)n2-c2ccccc2)n1 | – | – | – | 0.1 to 1 µM | ≥ 10 µM |
| C[C@H](NC(=O)c1c(N)nn2cccnc12)c1cc2cccc(Cl)c2c(=O)n1-c1ccccc1 | 0.1 to 1 µM | 0.1 to 1 µM | – | < 0.1 µM | – |
| COc1ccc(-c2cccc3cc([C@H](C)NC(=O)c4c(N)nn5cccnc45)n(-c4ccccc4)c(=O)c23)cn1 | ≥ 10 µM | – | 0.1 to 1 µM | < 0.1 µM | ≥ 10 µM |
| COc1cc(-c2cccc3cc([C@H](C)NC(=O)c4ncc(C)nc4N)n(-c4ccccc4)c(=O)c23)ccn1 | ≥ 10 µM | – | – | 0.1 to 1 µM | ≥ 10 µM |
| C[C@H](NC(=O)c1c(N)nn2cccnc12)c1cc2cccc(C=O)c2c(=O)n1-c1ccccc1 | – | – | – | 0.1 to 1 µM | ≥ 10 µM |
| CNCc1cccc2cc([C@H](C)NC(=O)c3c(N)nn4cccnc34)n(-c3ccccc3)c(=O)c12 | ≥ 10 µM | – | ≥ 10 µM | – | ≥ 10 µM |
| CC(C)Oc1ccc(-c2cnc(N)c(C(=O)N[C@@H](C)c3cc4cccc(Cl)c4c(=O)n3-c3ccccc3)n2)cn1 | ≥ 10 µM | – | – | 0.1 to 1 µM | ≥ 10 µM |
| C[C@H](NC(=O)c1c(N)nn2cccnc12)c1cc2cccc(-c3ccccc3)c2c(=O)n1-c1ccccc1 | ≥ 10 µM | – | 0.1 to 1 µM | 0.1 to 1 µM | – |
| COc1cccc2c(C)c([C@H](C)NC(=O)c3c(N)nn4cccnc34)n(-c3ccccc3)c(=O)c12 | ≥ 10 µM | – | 0.1 to 1 µM | – | ≥ 10 µM |
| C[C@H](NC(=O)c1c(N)nn2cccnc12)c1cc2cccc(CNC[C@@H]3CCCO3)c2c(=O)n1-c1ccccc1 | ≥ 10 µM | – | – | – | ≥ 10 µM |
| C[C@H](NC(=O)c1cnc2cccnn12)c1cc2cccc(Cl)c2c(=O)n1-c1ccccc1 | – | 0.1 to 1 µM | – | 0.1 to 1 µM | – |
| C[C@H](NC(=O)c1c(N)nn2cccnc12)c1cc2cccc(C#CCNC(=O)c3ccc(C#N)o3)c2c(=O)n1-c1ccccc1 | – | – | 0.1 to 1 µM | < 0.1 µM | 0.1 to 1 µM |
| C[C@H](NC(=O)c1c(N)oc2cccnc12)c1cc2cccc(Cl)c2c(=O)n1-c1ccccc1 | – | – | – | – | ≥ 10 µM |
